Experiments:
[1] = Pharmacokinetic evaluation in rats; assay type: in vivo; conditions: single dose; for absolute absorption rate: compared with hydrogen-substituted reference substance (FIGS. 1 to 4)
Protocol: Pharmacokinetic tests were carried out in rats as follows for the compounds obtained from Examples 1 and 2 above and the compound of Example 2 in which deuterium was substituted with hydrogen (hydrogen-substituted reference substance).
After the test substances were prepared to 2.5 or 5 mg/mL using WFI (water for injection), the rats were administered as a single dose at a prescribed dose (10 mL/kg), and blood was collected at a predetermined time (0, 0.25, 0.5, 1, 2, 4, 6, 8, 10, 24 hours), and then plasma was separated. Analysis of the drug was carried out using HPLC (XBridge column C18, Waters, mobile phase of 0.1% formic acid:acetonitrile (30:70, %/%)) and MS/MS (ESI positive, MRM), and concentrations of 5, 50, 100, 500, 1,000, and 5,000 ng/ml were prepared and measured by mixing rat blank plasma and each commercial standard solution at a ratio of 9:1. In addition, QC sample preparations were prepared at concentrations of 100, 750, and 2,500 ng/ml by mixing rat blank plasma and QC standard solution in a 9:1 ratio. As for the pretreatment method, 100 μl of the plasma sample was transferred to a centrifuge tube, and 10 μl of the internal standard solution and 300 μl of methanol were added thereto, and then mixed for about 30 seconds. The tube was centrifuged for about 5 minutes at a rotation speed of 12,000 rpm (4° C.) using a centrifuge, and the supernatant was taken, transferred to an LC vial and then injected into the device. Thereafter, the concentration of the drug in rat plasma was quantified by applying the previously verified assay. For pharmacokinetic parameters, WinNonlin 5.2 (Pharsight, USA) program was used, and AUC0-t, AUC0-∞, Cmax, Tmax, and t1/2 were calculated by noncompartment modeling (best fit). Pharmacokinetic parameter results were expressed as mean and standard deviation (SD), and statistically processed using the SPSS program (Statistical Package for the Social Sciences, 10.0K, USA).

BaF3 (de119/T790M/C797S) = assay: Measurement of inhibitory effect on cancer cell growth (GI50); assay type: cell-based; conditions: for GI50: Mus musculus, concentration to inhibit 50% of cell growth, BaF3 cells with EGFR de119/T790M/C797S; for activity against cancer cell lines expressing the C797S mutant epidermal growth factor receptor: summary in words of Table 1

GI50 (BaF3 (de119/T790M/C797S)) [nM] | relative absorption rate compared to the hydrogen-substituted reference substance [1] [%] | SMILES | absolute absorption rate [1] | activity against cancer cell lines expressing the C797S mutant epidermal growth factor receptor (BaF3 (de119/T790M/C797S))
≤ 500 |  | [2H]C([2H])([2H])N1CCN(C2CCN(c3ccc(Nc4ncc(Cl)c(Nc5ccccc5N(C)S(C)(=O)=O)n4)c(OC)c3)CC2)CC1 [Example 1, N-(2-((5-Chloro-2-((2-Methoxy-4-(4-(4-(Methyl-d3)Piperazin-1-Yl)Piperidin-1-Yl)Phenyl)Amino)Pyrimidin-4-Yl)Amino)Phenyl)-N-Methylmethanesulfonamide] | equivalent to or greater than the control drug | excellent activity
> 1000 |  | C=CC(=O)Nc1cc(Nc2nccc(-c3cn(C)c4ccccc34)n2)c(OC)cc1N(C)CCN(C)C [Osimertinib, osimertinib, reference compound] |  | poor activity
≤ 500 | 111.4 | [2H]C([2H])([2H])N(c1ccccc1Nc1nc(Nc2ccc(N3CCC(N4CCN(C)CC4)CC3)cc2OC)ncc1Cl)S(C)(=O)=O [Example 2] | equivalent to or greater than the control drug | excellent activity

— patent US20230114177A1, “NOVEL DEUTERIUM-SUBSTITUTED PYRIMIDINE DERIVATIVE AND PHARMACEUTICAL COMPOSITION COMPRISING SAME” (ONCOBIX CO., LTD., priority 2019, published 2023)
